The text below walks through data of patent US20030144308A1, “Fructose 1,6-bisphosphatase inhibitors” (priority 2001, published 2003).

One may read the IC50 as the midpoint of a concentration-inhibition curve. The melting point is the temperature of the solid-liquid transition.

Structures are written as SMILES.

Series [1] has as its target recombinant human F16BPase (Homo sapiens, UniProt P09467). Particulars: read-out: IC50 against the human enzyme; allosteric inhibitor; 40 minutes at room temperature without preincubation of compound with enzyme.
Description: Fructose-1,6-bisphosphatase Enzyme Assay: Fructose-1,6-bisphosphatase (F16BP) is assayed by measuring its ability to hydrolyze inorganic phosphate from fructose-1,6-bisphosphate using a modification of a reported method (Biochem. J. 1994, 298, 395). […] The final solution consists of 50 mM HEPES (catalog #H7523, Sigma Chemical Company, PO Box 14508, St. Louis, Mo. 63178) pH=7.2, 100 mM KCl (Sigma catalog #P3911), 2 mM MgCI2 (Sigma catalog #M9272), 2 mM EGTA (Sigma catalog #E0396), 1 mM DTT (Sigma atalog #D5545), and 500 1 μM fructose-1,6-bisphosphate (Sigma catalog #752-1). The solution is incubated for 40 minutes at room temperature without preincubation of compound with enzyme. The phosphate released by the enzyme is measured spectrophotometrically using a Titertek Multiscann MCC 340 (Titertek, 330 Wynn Drive, Huntsville, Ala. 35805) at 620 nm, after allowing the phosphate to form a complex for 10 minutes after the addition of 150 μL of ammonium molybdate/malachite green (AM/MG) solution. To prepare the AM/MG solution, one volume of 4.2% ammonium molybdate (w/v, Sigma catalog #A7302) in 4 molar aqueous hydrochloric acid is added to three volumes of 0.045% malachite green (w/v, Sigma catalog #M9636) and 0.01% Tween®-20 (v/v, Sigma catalog #P1379) in water. […]
Series [2] concerns another carcinoma which does not express the EGF receptor. Conditions: mouse, in vivo; cited from earlier work.
The subject of series [3] is transplanted human mammary carcinoma which expresses epidermal growth factor receptor tyrosine kinase (EGFR). Conditions: athymic nude mice; cited from earlier work.

recombinant human F16BPase, sequence (P09467 whole entry): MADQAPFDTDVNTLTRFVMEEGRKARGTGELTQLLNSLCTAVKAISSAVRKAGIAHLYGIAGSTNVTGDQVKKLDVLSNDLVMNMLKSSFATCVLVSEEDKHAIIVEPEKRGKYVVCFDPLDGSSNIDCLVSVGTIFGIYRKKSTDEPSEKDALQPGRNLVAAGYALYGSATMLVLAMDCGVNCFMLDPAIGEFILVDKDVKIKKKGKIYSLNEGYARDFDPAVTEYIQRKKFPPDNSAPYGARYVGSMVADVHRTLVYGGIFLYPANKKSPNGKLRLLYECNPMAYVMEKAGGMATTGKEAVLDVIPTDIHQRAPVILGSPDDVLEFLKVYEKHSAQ

`Nc1ncnc2c1ncn2[C@@H]1O[C@H](COP(=O)(O)O)[C@@H](O)[C@H]1O` [AMP, adenosine 5′-monophosphate]: in series [1], the 50% inhibitory concentration (IC50) was determined as 800 nM.
Take `CCOc1cc2nc(CCl)nc(Nc3cccc(-c4csc(C)n4)c3)c2cc1OCC.Cl`: the melting point was in the range of 252 to 256 °C.
As for `O=CN/C=C/c1cc(O)ccc1O` [erbstatin], in series [2], the “growth of carcinoma which does not express the EGF receptor” value was “without effect on the growth”. In addition, the “growth of transplanted human mammary carcinoma expressing EGFR” value in series [3] is “selectively attenuates the growth”.
